Test results taken from US20240059689A1, “PURINE DERIVATIVES AS ANTICANCER AGENTS” (Tango Therapeutics, Inc., priority 2021, published 2024).

Experiments:
USP1-UAF1 = USP1-UAF1 (Homo sapiens, UniProt O94782); assay: Ubiquitin Rhodamine assay of USP1-UAF1 activity; assay type: biochemical
Experimental: Certain compounds of the disclosure were assessed for USP1-UAF1 activity in a Ubiquitin Rhodamine assay as described in Biology Example 1.

MDA-MB-436 = assay: Viability assay, BRCA1 mutant cell line MDA-MB-436; assay type: cell-based; conditions: Homo sapiens, MDA-MB-436, viability, BRCA1 mutant MDA-MB-436; read-out: MDA-MB-436 rel IC50
Excerpt: (§1) Table 1 also indicates IC50 values in a viability assay for a non-isogenic pair of BRCA1 mutant (column 5-MDA-MB-436) and BRCA1 WT (column 6—HCC1954) cell lines. These values indicate the effect of treatment with compound on cell survival.

HCC1954 = assay: Viability assay, BRCA1 WT cell line HCC1954; assay type: cell-based; conditions: Homo sapiens, HCC1954, viability, read-out: HCC1954 rel IC50
Excerpt: as §1

monoubiquitinated PCNA = assay: AlphaLISA assay measuring monoubiquitinated PCNA in MDA-MB-436; assay type: cell-based; conditions: Homo sapiens, MDA-MB-436, monoubiquitinated PCNA, read-out: Alpha Lisa IC50
Excerpt: Table 1 also indicates IC50 values for exemplary compounds in an AlphaLISA assay measuring monoubiquitinated PCNA in a BRCA1 mutant cell line (MDA-MB-436; column 7).

Sequence of USP1-UAF1 (O94782 whole entry): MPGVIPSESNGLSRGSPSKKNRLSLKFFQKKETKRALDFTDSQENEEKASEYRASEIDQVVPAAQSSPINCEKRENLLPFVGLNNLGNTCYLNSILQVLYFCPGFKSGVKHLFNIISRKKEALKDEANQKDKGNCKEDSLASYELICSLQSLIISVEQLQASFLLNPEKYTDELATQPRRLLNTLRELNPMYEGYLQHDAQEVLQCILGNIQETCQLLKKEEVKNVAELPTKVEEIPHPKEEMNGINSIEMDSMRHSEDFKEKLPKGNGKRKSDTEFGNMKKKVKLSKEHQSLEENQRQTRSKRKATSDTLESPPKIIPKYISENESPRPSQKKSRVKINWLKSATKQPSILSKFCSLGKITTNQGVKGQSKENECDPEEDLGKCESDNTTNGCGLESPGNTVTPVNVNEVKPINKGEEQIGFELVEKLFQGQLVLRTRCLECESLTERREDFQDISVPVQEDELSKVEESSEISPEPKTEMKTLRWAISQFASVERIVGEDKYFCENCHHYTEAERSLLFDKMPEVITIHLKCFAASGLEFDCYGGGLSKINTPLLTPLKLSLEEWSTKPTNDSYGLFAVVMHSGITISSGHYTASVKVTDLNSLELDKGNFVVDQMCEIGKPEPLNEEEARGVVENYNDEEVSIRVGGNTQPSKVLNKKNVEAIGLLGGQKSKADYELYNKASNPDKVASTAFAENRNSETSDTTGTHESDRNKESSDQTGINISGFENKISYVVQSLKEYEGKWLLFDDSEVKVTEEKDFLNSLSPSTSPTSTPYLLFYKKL
Sequence of USP1-UAF1 (Q8TAF3 whole entry partner): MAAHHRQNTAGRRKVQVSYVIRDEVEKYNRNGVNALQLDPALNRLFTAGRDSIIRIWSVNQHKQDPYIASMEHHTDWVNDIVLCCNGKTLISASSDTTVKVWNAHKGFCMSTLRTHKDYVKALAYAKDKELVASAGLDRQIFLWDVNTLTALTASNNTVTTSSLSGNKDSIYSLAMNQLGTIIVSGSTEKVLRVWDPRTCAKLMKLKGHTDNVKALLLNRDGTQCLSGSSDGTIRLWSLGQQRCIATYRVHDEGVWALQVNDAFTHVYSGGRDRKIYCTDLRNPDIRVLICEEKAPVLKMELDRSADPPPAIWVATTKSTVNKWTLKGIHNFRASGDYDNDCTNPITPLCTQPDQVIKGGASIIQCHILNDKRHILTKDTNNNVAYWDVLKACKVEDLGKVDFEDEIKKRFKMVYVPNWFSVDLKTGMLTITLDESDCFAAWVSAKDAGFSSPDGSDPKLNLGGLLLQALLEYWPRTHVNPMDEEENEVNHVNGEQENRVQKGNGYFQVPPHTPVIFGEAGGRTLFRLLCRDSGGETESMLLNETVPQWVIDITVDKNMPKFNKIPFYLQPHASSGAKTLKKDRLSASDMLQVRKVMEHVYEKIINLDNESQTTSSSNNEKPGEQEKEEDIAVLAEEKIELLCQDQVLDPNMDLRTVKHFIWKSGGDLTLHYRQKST

Compound | IC50 (USP1-UAF1) | IC50 (MDA-MB-436) | IC50 (HCC1954) | IC50 (monoubiquitinated PCNA)
COc1ncnc(C2CC2)c1-c1ncc2c(n1)n(Cc1ccc(-c3nc(C(F)(F)F)cn3C)c(F)c1)c(=N)n2CC(F)(F)F [Example T-118, 2-(4-cyclopropyl-6-methoxypyrimidin-5-yl)-9-(3-fluoro-4-(1-methyl-4-(trifluoromethyl)-1H-imidazol-2-yl)benzyl)-7-(2,2,2-trifluoroethyl)-7H-purin-8(9H)-imine] | 100 to 10000 nM | < 100 nM | ≥ 10000 nM | < 100 nM
CCOc1ncnc(C2CC2)c1-c1ncc2c(n1)n(Cc1ccc(-c3nc(C(F)(F)F)cn3C)cc1)c(=N)n2CC(F)(F)F [Example T-119, 2-(4-cyclopropyl-6-ethoxy-pyrimidin-5-yl)-9-[[4-[1-methyl-4-(trifluoromethyl)imidazol-2-yl]phenyl]methyl]-7-(2,2,2-trifluoroethyl)purin-8-imine] | 100 to 10000 nM | 100 to 250 nM | ≥ 10000 nM | 100 to 250 nM
COc1ncnc(C2CC2)c1-c1ncc2c(n1)n(Cc1ccc(-c3nc(C(F)(F)F)cn3C3CCC3)cc1)c(=N)n2CC(F)(F)F [Example T-120, 9-[[4-[1-cyclobutyl-4-(trifluoromethyl)imidazol-2-yl]phenyl]methyl]-2-(4-cyclopropyl-6-methoxy-pyrimidin-5-yl)-7-(2,2,2-trifluoroethyl)purin-8-imine] | < 30 nM | < 100 nM | ≥ 10000 nM | < 100 nM
COc1nccc(F)c1-c1ncc2c(n1)n(Cc1ccc(-c3nc(C(F)(F)F)cn3C)cc1)c(=N)n2CC(F)(F)F [Example T-121, 2-(4-fluoro-2-methoxy-3-pyridyl)-9-[[4-[1-methyl-4-(trifluoromethyl)imidazol-2-yl]phenyl]methyl]-7-(2,2,2-trifluoroethyl)purin-8-imine] | 30 to 100 nM | 100 to 250 nM | ≥ 10000 nM | 250 to 10000 nM
CNc1nc(OC)c(-c2ncc3c(n2)n(Cc2ccc(-c4nc(C(F)(F)F)cn4C)cc2)c(=N)n3C)c(C2CC2)n1 [Example T-122, 4-cyclopropyl-5-[8-imino-7-methyl-9-[[4-[1-methyl-4-(trifluoromethyl)imidazol-2-yl]phenyl]methyl]purin-2-yl]-6-methoxy-N-methyl-pyrimidin-2-amine] | 100 to 10000 nM | 100 to 250 nM | ≥ 10000 nM | 250 to 10000 nM
COc1ncnc(C2CC2)c1-c1ncc2c(n1)n(Cc1ccc(-c3nc(C(F)(F)F)cn3C)cc1)c(=N)n2CC(F)F [Example T-123, 2-(4-cyclopropyl-6-methoxy-pyrimidin-5-yl)-7-(2,2-difluoroethyl)-9-[[4-[1-methyl-4-(trifluoromethyl)imidazol-2-yl]phenyl]methyl]purin-8-imine] | 30 to 100 nM | < 100 nM | ≥ 10000 nM | < 100 nM
COc1cc(C(F)(F)F)nn1-c1ccc(Cn2c(=N)n(CC(F)(F)F)c3cnc(-c4c(C)cnn4C(C)C)nc32)cc1 [Example T-124, 2-(2-isopropyl-4-methyl-pyrazol-3-yl)-9-[[4-[5-methoxy-3-(trifluoromethyl)pyrazol-1-yl]phenyl]methyl]-7-(2,2,2-trifluoroethyl)purin-8-imine] | < 30 nM | < 100 nM | ≥ 10000 nM | < 100 nM
Cn1cc(C(F)(F)F)nc1-c1ccc(Cn2c(=N)n(CC(F)(F)F)c3cnc(-c4cccnc4OC(F)F)nc32)cc1 [Example T-125, 2-[2-(difluoromethoxy)-3-pyridyl]-9-[[4-[1-methyl-4-(trifluoromethyl)imidazol-2-yl]phenyl]methyl]-7-(2,2,2-trifluoroethyl)purin-8-imine] | 30 to 100 nM | 100 to 250 nM | 250 to 10000 nM | 100 to 250 nM
COc1ncnc(C2CC2)c1-c1ncc2c(n1)n(Cc1cc(F)c(-c3nc(C(F)(F)F)cn3C)c(F)c1)c(=N)n2CC(F)(F)F [Example T-126, 2-(4-cyclopropyl-6-methoxy-pyrimidin-5-yl)-9-[[3,5-difluoro-4-[1-methyl-4-(trifluoromethyl)imidazol-2-yl]phenyl]methyl]-7-(2,2,2-trifluoroethyl)purin-8-imine] | 30 to 100 nM | < 100 nM | ≥ 10000 nM | < 100 nM
COc1ncnc(C2CC2)c1-c1ncc2c(n1)n(Cc1cc(F)c(-n3nc(C(F)(F)F)cc3OC)c(F)c1)c(=N)n2CC(F)(F)F [Example T-127] | 30 to 100 nM | < 100 nM | ≥ 10000 nM | < 100 nM
COc1ncnc(C2CC2)c1-c1ncc2c(n1)n(Cc1ccc(-c3nc(C(F)(F)F)sc3C)cc1)c(=N)n2CC(F)(F)F [Example T-128] | < 30 nM | < 100 nM | 250 to 10000 nM | < 100 nM
Cc1cnn(C(C)C)c1-c1ncc2c(n1)n(Cc1ccc(-c3nc(C(F)(F)F)cn3C)cc1)c(=N)n2CC(F)(F)F [Example T-130, 2-(2-isopropyl-4-methyl-pyrazol-3-yl)-9-[[4-[1-methyl-4-(trifluoromethyl)imidazol-2-yl]phenyl]methyl]-7-(2,2,2-trifluoroethyl)purin-8-imine] | < 30 nM | < 100 nM | ≥ 10000 nM | < 100 nM
COc1ncnc(C2CC2)c1-c1ncc2c(n1)n([C@H](C)c1ccc(-c3nc(C(F)(F)F)cn3C)cc1)c(=N)n2C [Example T-131, 2-(4-cyclopropyl-6-methoxy-pyrimidin-5-yl)-7-methyl-9-[(1R)-1-[4-[1-methyl-4-(trifluoromethyl)imidazol-2-yl]phenyl]ethyl]purin-8-imine] | 30 to 100 nM | < 100 nM | ≥ 10000 nM | < 100 nM
CCn1cc(C(F)(F)F)nc1-c1ccc(Cn2c(=N)n(CC(F)(F)F)c3cnc(-c4c(OC)ncnc4C4CC4)nc32)cc1 [Example T-132] | 30 to 100 nM | < 100 nM | ≥ 10000 nM | < 100 nM
COCCn1c(=N)n(Cc2ccc(-c3nc(C(F)(F)F)cn3C)cc2)c2nc(-c3c(OC)ncnc3C3CC3)ncc21 [Example T-134, 2-(4-cyclopropyl-6-methoxy-pyrimidin-5-yl)-7-(2-methoxyethyl)-9-[[4-[1-methyl-4-(trifluoromethyl)imidazol-2-yl]phenyl]methyl]purin-8-imine] | 100 to 10000 nM | 100 to 250 nM | ≥ 10000 nM | 250 to 10000 nM
[2H]C([2H])([2H])Oc1ncnc(C2CC2)c1-c1ncc2c(n1)n(Cc1ccc(-c3nc(C(F)(F)F)cn3C(C)C)cc1)c(=N)n2CC(F)(F)F [Example T-135, 2-[4-cyclopropyl-6-(trideuteriomethoxy)pyrimidin-5-yl]-9-[[4-[1-isopropyl-4-(trifluoromethyl)imidazol-2-yl]phenyl]methyl]-7-(2,2,2-trifluoroethyl)purin-8-imine] | 30 to 100 nM | < 100 nM | ≥ 10000 nM | 100 to 250 nM
COc1ccnc(C2CC2)c1-c1ncc2c(n1)n(Cc1ccc(-n3nc(C(F)(F)F)cc3OC)cc1)c(=N)n2CC(F)(F)F [Example T-136, 2-(2-cyclopropyl-4-methoxy-3-pyridyl)-9-[[4-[5-methoxy-3-(trifluoromethyl)pyrazol-1-yl]phenyl]methyl]-7-(2,2,2-trifluoroethyl)purin-8-imine] | 30 to 100 nM | 100 to 250 nM | ≥ 10000 nM | 100 to 250 nM
COc1ncnc(C2(C)CC2)c1-c1ncc2c(n1)n(Cc1ccc(-c3nc(C(F)(F)F)cn3C)cc1)c(=N)n2CC(F)(F)F [Example T-137, 2-[4-methoxy-6-(1-methylcyclopropyl)pyrimidin-5-yl]-9-[[4-[1-methyl-4-(trifluoromethyl)imidazol-2-yl]phenyl]methyl]-7-(2,2,2-trifluoroethyl)purin-8-imine] | 100 to 10000 nM | 100 to 250 nM | ≥ 10000 nM | 100 to 250 nM
CCOc1cc(C(F)(F)F)nn1-c1ccc(Cn2c(=N)n(CC(F)(F)F)c3cnc(-c4c(C(F)(F)F)cnn4C)nc32)cc1 [Example T-138, 9-[[4-[5-ethoxy-3-(trifluoromethyl)pyrazol-1-yl]phenyl]methyl]-2-[2-methyl-4-(trifluoromethyl)pyrazol-3-yl]-7-(2,2,2-trifluoroethyl)purin-8-imine] | 30 to 100 nM | 100 to 250 nM | 250 to 10000 nM | 100 to 250 nM
CCn1c(=N)n(Cc2ccc(-c3nc(C(F)(F)F)cn3C)cc2)c2nc(-c3c(OC)ncnc3C3CC3)ncc21 [Example T-139, 2-(4-cyclopropyl-6-methoxy-pyrimidin-5-yl)-7-ethyl-9-[[4-[1-methyl-4-(trifluoromethyl)imidazol-2-yl]phenyl]methyl]purin-8-imine] | 30 to 100 nM | < 100 nM | ≥ 10000 nM | < 100 nM
Cn1cc(C(F)(F)F)nc1-c1ccc(Cn2c(=N)n(C)c3cnc(-c4c(OC(F)(F)F)ccnc4C4CC4)nc32)cc1 [Example T-140, 2-[2-cyclopropyl-4-(trifluoromethoxy)-3-pyridyl]-7-methyl-9-[[4-[1-methyl-4-(trifluoromethyl)imidazol-2-yl]phenyl]methyl]purin-8-imine] | 30 to 100 nM | < 100 nM | ≥ 10000 nM | < 100 nM
COc1nccc(C2CC2)c1-c1ncc2c(n1)n(Cc1ccc(-c3nc(C(F)(F)F)cn3C)cc1)c(=N)n2CC(F)(F)F [Example T-141, 2-(4-cyclopropyl-2-methoxy-3-pyridyl)-9-[[4-[1-methyl-4-(trifluoromethyl)imidazol-2-yl]phenyl]methyl]-7-(2,2,2-trifluoroethyl)purin-8-imine] | 100 to 10000 nM | 100 to 250 nM | ≥ 10000 nM | 100 to 250 nM
